Test system: BEAS-2B epithelium
Assay: Drug toxicity test in bronchiolar device (LDH release)
Assay type: cell-based
Conditions: 0.1, 1.0 and 10 μM in BEGM medium, recirculating 10 μL/min, 48 hours, bronchiolar device of FIG. 27; FIG. 95A
Method: FIGS. 95A-95D show drug toxicity results obtained from using a bronchiolar device embodiment described herein; FIG. 95A is a graph of camptothecin concentration (μM) vs. cytotoxicity (% LDH release) illustrating the cytotoxicity of camptothecin as measured after having passed through the bronchiolar device; […] show images of fluorescent microbead deposition on a central lumen associated with cells.
Drug toxicity was tested using a bronchiolar device as described herein. A pro-apoptotic anti-cancer drug, camptothecin, was chosen to monitor drug toxicity in the bronchiolar device illustrated in FIG. 27. Different concentrations of camptothecin (0.1, 1.0 and 10 μM) were prepared by diluting the original stock solution (2 mg/mL in DMSO) with BEGM culturing medium. After the lumen of a hollow tube of the device was covered with BEAS-2B epithelium, medium in the medium reservoir (which was connected to a maintaining system) was replaced with individual concentrations of the camptothecin medium solution to allow the circulating flow into medium chamber of device. The tubing connected to hollow tube was closed and the recirculating flow rate was set to 10 μL/min to allow camptothecin to diffuse into the bronchiolar epithelium for 48 hours.

SMILES: CC[C@@]1(O)C(=O)OCc2c1cc1n(c2=O)Cc2cc3ccccc3nc2-1 [camptothecin]
- cytotoxicity (% LDH release) versus camptothecin concentration: drug dose dependence was observed
